Experimental data as given in PubChem BioAssay AID328 (DTP/NCI, 2004).
Several values for one entry are separate records, joined by “and”; a condition that tells them apart may be missing. Equal values may be shown once. Inconclusive results and toxic doses are left out.

Tested on: BDF1 mice, P388 leukemia ip, median survival T/C
Test: NCI In Vivo Anticancer Drug Screen. Data for tumor model P388 Leukemia (intraperitoneal) in B6D2F1 (BDF1) mice
Settings: endpoint: median survival time, higher = longer survival
Procedure, shortened: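 Read-out is survival of treated animals expressed relative to the vehicle group, as a T/C ratio.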

[1] = dose: 100.0 mg/kg/injection, schedule: Q04DX003 (ip), vehicle: Klucel (hydroxypropylcellulose) (HPC)
[2] = dose: 200.0 mg/kg/injection, schedule: Q04DX003 (ip), vehicle: Klucel (hydroxypropylcellulose) (HPC)
[3] = dose: 100.0 mg/kg/injection, schedule: Q01DX009 (ip), vehicle: Klucel (hydroxypropylcellulose) (HPC)
[4] = dose: 200.0 mg/kg/injection, schedule: Q01DX009 (ip), vehicle: Klucel (hydroxypropylcellulose) (HPC)

Structure (SMILES): Nc1nc(=S)c2[nH]cnc2[nH]1
- T/C (dose: 0.12 mg/kg/injection, schedule: Q01DX009 (ip), vehicle: acetone): 91 % of control
- T/C (dose: 0.25 mg/kg/injection, schedule: Q01DX009 (ip), vehicle: acetone): 100 % of control
- T/C (dose: 0.5 mg/kg/injection, schedule: Q01DX009 (ip), vehicle: acetone): 104 % of control
- T/C (dose: 0.63 mg/kg/injection, schedule: Q01DX010 (ip), vehicle: saline): 122 % of control
- T/C (dose: 1.0 mg/kg/injection, schedule: Q01DX009 (ip), vehicle: acetone): 112 % of control
- T/C (dose: 1.25 mg/kg/injection, schedule: Q01DX010 (ip), vehicle: other): 115 % of control
- T/C (dose: 1.25 mg/kg/injection, schedule: Q01DX010 (ip), vehicle: saline): 159 % of control
- T/C (dose: 2.0 mg/kg/injection, schedule: Q01DX009 (ip), vehicle: acetone): 95 % of control
- T/C (dose: 2.5 mg/kg/injection, schedule: Q01DX010 (ip), vehicle: other): 111 % of control
- T/C (dose: 2.5 mg/kg/injection, schedule: Q01DX010 (ip), vehicle: saline): 104 % of control
- T/C (dose: 5.0 mg/kg/injection, schedule: Q01DX010 (ip), vehicle: other): 90 % of control and 100 % of control
- T/C (dose: 5.0 mg/kg/injection, schedule: Q01DX010 (ip), vehicle: saline): 100 % of control

Structure (SMILES): Cc1ccc(Nc2c([N+](=O)[O-])c(=O)n(C)c(=O)n2C)cc1C
- T/C (dose: 50.0 mg/kg/injection, schedule: Q01DX009 (ip), vehicle: saline with Tween-80): 103 % of control
- T/C (dose: 100.0 mg/kg/injection, schedule: Q01DX009 (ip), vehicle: saline with Tween-80): 96 % of control
- T/C (dose: 200.0 mg/kg/injection, schedule: Q01DX009 (ip), vehicle: saline with Tween-80): 96 % of control

Structure (SMILES): CC(=O)NNC(=O)c1ccccn1
- T/C (dose: 4.0 mg/kg/injection, schedule: Q03HX024 (ip), vehicle: saline): 100 % of control
- T/C (dose: 8.0 mg/kg/injection, schedule: Q03HX008 (ip), vehicle: saline): 100 % of control
- T/C (dose: 8.0 mg/kg/injection, schedule: Q03HX016 (ip), vehicle: saline): 95 % of control
- T/C (dose: 8.0 mg/kg/injection, schedule: Q03HX024 (ip), vehicle: saline): 90 % of control
- T/C (dose: 16.0 mg/kg/injection, schedule: Q03HX008 (ip), vehicle: saline): 90 % of control
- T/C (dose: 16.0 mg/kg/injection, schedule: Q03HX016 (ip), vehicle: saline): 90 % of control
- T/C (dose: 16.0 mg/kg/injection, schedule: Q03HX024 (ip), vehicle: saline): 100 % of control
- T/C (dose: 19.0 mg/kg/injection, schedule: Q01DX010 (ip), vehicle: water): 95 % of control
- T/C (dose: 32.0 mg/kg/injection, schedule: Q01DX009 (ip), vehicle: saline): 90 % of control
- T/C (dose: 32.0 mg/kg/injection, schedule: Q01DX009 (oral), vehicle: saline): 90 % of control
- T/C (dose: 32.0 mg/kg/injection, schedule: Q03HX008 (ip), vehicle: saline): 95 % of control
- T/C (dose: 32.0 mg/kg/injection, schedule: Q03HX016 (ip), vehicle: saline): 90 % of control
- T/C (dose: 32.0 mg/kg/injection, schedule: Q03HX024 (ip), vehicle: saline): 90 % of control
- T/C (dose: 32.0 mg/kg/injection, schedule: Q04DX003 (ip), vehicle: saline): 90 % of control
- T/C (dose: 38.0 mg/kg/injection, schedule: Q01DX010 (ip), vehicle: water): 100 % of control
- T/C (dose: 50.0 mg/kg/injection, schedule: Q01DX009 (ip), vehicle: water): 113 % of control
- T/C (dose: 50.0 mg/kg/injection, schedule: Q01DX009 (oral), vehicle: water): 109 % of control
- T/C (dose: 64.0 mg/kg/injection, schedule: Q01DX001 (ip), vehicle: saline): 90 % of control
- T/C (dose: 64.0 mg/kg/injection, schedule: Q01DX001 (oral), vehicle: saline): 90 % of control
- T/C (dose: 64.0 mg/kg/injection, schedule: Q01DX009 (ip), vehicle: saline): 90 % of control
- T/C (dose: 64.0 mg/kg/injection, schedule: Q01DX009 (oral), vehicle: saline): 90 % of control
- T/C (dose: 64.0 mg/kg/injection, schedule: Q03HX008 (ip), vehicle: saline): 95 % of control
- T/C (dose: 64.0 mg/kg/injection, schedule: Q03HX016 (ip), vehicle: saline): 90 % of control
- T/C (dose: 64.0 mg/kg/injection, schedule: Q03HX024 (ip), vehicle: saline): 90 % of control
- T/C (dose: 64.0 mg/kg/injection, schedule: Q04DX003 (ip), vehicle: saline): 100 % of control
- T/C (dose: 64.0 mg/kg/injection, schedule: Q08DX002 (ip), vehicle: saline): 90 % of control
- T/C (dose: 75.0 mg/kg/injection, schedule: Q01DX010 (ip), vehicle: water): 100 % of control
- T/C (dose: 100.0 mg/kg/injection, schedule: Q01DX009 (oral), vehicle: water): 109 % of control
- T/C (dose: 128.0 mg/kg/injection, schedule: Q01DX001 (ip), vehicle: saline): 100 % of control
- T/C (dose: 128.0 mg/kg/injection, schedule: Q01DX001 (oral), vehicle: saline): 95 % of control
- T/C (dose: 128.0 mg/kg/injection, schedule: Q01DX009 (ip), vehicle: saline): 95 % of control
- T/C (dose: 128.0 mg/kg/injection, schedule: Q01DX009 (oral), vehicle: saline): 90 % of control
- T/C (dose: 128.0 mg/kg/injection, schedule: Q04DX003 (ip), vehicle: saline): 90 % of control
- T/C (dose: 128.0 mg/kg/injection, schedule: Q08DX002 (ip), vehicle: saline): 90 % of control
- T/C (dose: 256.0 mg/kg/injection, schedule: Q01DX001 (ip), vehicle: saline): 90 % of control
- T/C (dose: 256.0 mg/kg/injection, schedule: Q01DX001 (oral), vehicle: saline): 90 % of control
- T/C (dose: 256.0 mg/kg/injection, schedule: Q04DX003 (ip), vehicle: saline): 95 % of control

Structure (SMILES): N#C[S-].N#C[S-].[NH-]CC[NH-].[Pt+4]
- T/C (dose: 10.0 mg/kg/injection, schedule: Q01DX009 (ip), vehicle: saline with Tween-80): 113 % of control
- T/C (dose: 10.0 mg/kg/injection, schedule: Q04DX003 (ip), vehicle: saline with Tween-80): 104 % of control
- T/C (dose: 20.0 mg/kg/injection, schedule: Q04DX003 (ip), vehicle: saline with Tween-80): 100 % of control
- T/C (dose: 26.4 mg/kg/injection, schedule: Q01DX009 (ip), vehicle: saline with Tween-80): 90 % of control
- T/C (dose: 40.0 mg/kg/injection, schedule: Q01DX009 (ip), vehicle: saline with Tween-80): 90 % of control
- T/C (dose: 40.0 mg/kg/injection, schedule: Q04DX003 (ip), vehicle: saline with Tween-80): 86 % of control
- T/C (dose: 60.0 mg/kg/injection, schedule: Q01DX009 (ip), vehicle: saline with Tween-80): 118 % of control

Structure (SMILES): CCN(CC)c1ccc(C(=C(c2ccc(N(CC)CC)cc2)c2ccc(N(CC)CC)cc2)c2ccc(N(CC)CC)cc2)cc1
- T/C (dose: 50.0 mg/kg/injection, schedule: Q04DX003 (ip), vehicle: Klucel (hydroxypropylcellulose) (HPC)): 100 % of control
- T/C [1]: 104 % of control
- T/C [2]: 90 % of control

Structure (SMILES): O=C(SCO)c1ccccc1
- T/C (dose: 100.0 mg/kg/injection, schedule: Q04DX003 (sc), vehicle: olive oil, sesame oil, peanut oil): 100 % of control
- T/C (dose: 200.0 mg/kg/injection, schedule: Q04DX003 (sc), vehicle: olive oil, sesame oil, peanut oil): 110 % of control
- T/C (dose: 400.0 mg/kg/injection, schedule: Q04DX003 (sc), vehicle: olive oil, sesame oil, peanut oil): 100 % of control

Structure (SMILES): C1CN2CCN1CC2.[Cl][Ni+][Cl]
- T/C (dose: 0.78 mg/kg/injection, schedule: Q01DX009 (ip), vehicle: saline): 103 % of control
- T/C (dose: 1.56 mg/kg/injection, schedule: Q01DX009 (ip), vehicle: saline): 92 % of control and 99 % of control
- T/C (dose: 3.12 mg/kg/injection, schedule: Q01DX009 (ip), vehicle: saline): 99 % of control and 103 % of control
- T/C (dose: 6.25 mg/kg/injection, schedule: Q01DX009 (ip), vehicle: saline): 100 % of control and 101 % of control

Structure (SMILES): COc1cc(OC)c(Br)c(OC)c1
- T/C [3]: 100 % of control
- T/C [1]: 112 % of control
- T/C [4]: 100 % of control
- T/C [2]: 104 % of control
- T/C (dose: 400.0 mg/kg/injection, schedule: Q01DX009 (ip), vehicle: Klucel (hydroxypropylcellulose) (HPC)): 116 % of control
- T/C (dose: 400.0 mg/kg/injection, schedule: Q04DX003 (ip), vehicle: Klucel (hydroxypropylcellulose) (HPC)): 100 % of control

Structure (SMILES): N#CCCN1c2ccccc2Sc2ccccc21
- T/C (dose: 50.0 mg/kg/injection, schedule: Q01DX009 (ip), vehicle: Klucel (hydroxypropylcellulose) (HPC)): 110 % of control
- T/C [3]: 105 % of control
- T/C [4]: 110 % of control
